Laboratory results as given in patent US20120165230A1, “BIOLOGICALLY PRODUCED CYCLIC AFFINITY TAGS” (LanthioPep B.V., priority 2009, published 2012).

Tested on: L. lactis MG1363
Assay: Antimicrobial activity: growth inhibition in two-fold dilution series in microwell plate, OD600 after 6 hours
Format: cell-based, Lactococcus lactis
Settings: supernatant treated with trypsin to cleave off leader, two-fold dilutions
Procedure: FIG. 2. Antimicrobial activity of a truncated nisin mutant containing HPQF (SEQ ID NO:7) in ring C. Lactococcus lactis containing a first plasmid encoding NisB, NisT and NisC and a second plasmid encoding […] (SEQ ID NO:44) was induced. The supernatant was treated with trypsin to cleave off the leader peptide. Series of two-fold dilutions were made in a microwell plate and the peptide's capacity to inhibit the growth of L. lactis MG1363 was tested by measuring OD 600 after six hours of incubation. ∘: control with PBS, ▪: truncated nisin mutant, ▾: supernatant of nisin A-producing L. lactis NZ9700.
The leader was cleaved off with trypsin and the antimicrobial activity was measured as follows: In a microwell plate, 200 μl of supernatant of nisin fusion strain and in other wells, 200 μl of control (positive, e.g., filtered sup of NZ9700 and negative) solutions was added to the wells of the first column. 100 μl medium was added to the remaining empty wells. For each row, 100 μl from the first column was added to the second and, after mixing, from the second to the third, etc., leading to two-fold dilution steps. 100 μl of sensitive strain. MG1363 was added to all wells at low density, OD600: 0.05-0.1. After 6 hours, OD600 was measured.

For “ITSISLCTPGCKTHPQFCNMKEQKLISEED [H14, P15, Q16, F17, ΔG18 mutant of nisin (1-22) with internal strep-tag, coupled to external myc-tag EQKLISEED]”, the “antimicrobial activity (inhibition of growth of L. lactis MG1363)” value (FIG. 2) was “clearly has antimicrobial activity” and the “antimicrobial activity (inhibition of growth of L. lactis MG1363)” value (FIG. 2, listed as truncated nisin mutant) was “still has activity”.
